ChEMBL document CHEMBL4825658, “Discovery of 3-(4-(2-((1H-Indol-5-yl)amino)-5-fluoropyrimidin-4-yl)-1H-pyrazol-1-yl)propanenitrile Derivatives as Selective TYK2 Inhibitors for the Treatment of Inflammatory Bowel Disease” (J Med Chem, 2021)

Tests used:
[1] = molecular target: Tyrosine-protein kinase JAK2 (Homo sapiens, UniProt O60674); experiment: Inhibition of recombinant human JAK2 (808 to end residues) KTFCGTPEYLAPE as substrate measured after 40 mins in presence of [gamm33P]ATP by scintillation counting based radiometry assay
[2] = molecular target: Non-receptor tyrosine-protein kinase TYK2 (Homo sapiens, UniProt P29597); experiment: Inhibition of recombinant human TYK2 (875 to end residues) using GGMEDIYFEFMGG as substrate incubated for 40 mins in presence of [gamma33P]ATP by scintillation counting based radiometry assay
Homo sapiens = species: Homo sapiens; experiment: Selectivity index, ratio of IC50 for inhibition of recombinant human JAK2 (808 to end residues) to IC50 for inhibition of recombinant human TYK2 (875 to end residues)
[3] = molecular target: Tyrosine-protein kinase JAK1 (Homo sapiens, UniProt P23458); experiment: Inhibition of human JAK1 (866 to end residues) using GEEPLYWSFPAKKK as substrate after 40 mins in presence of [gamma33P]ATP by scintillation counting based radiometry assay
[4] = molecular target: T1, Tyrosine-protein kinase JAK3 (Homo sapiens, UniProt P52333); experiment: Inhibition of recombinant human JAK3 (781 to end residues) using GGEEEEYFELVKKKK as substrate measured after 40 mins in presence of [gamma33P]ATP by scintillation counting based radiometry assay
T1 sequence (P52333 whole entry): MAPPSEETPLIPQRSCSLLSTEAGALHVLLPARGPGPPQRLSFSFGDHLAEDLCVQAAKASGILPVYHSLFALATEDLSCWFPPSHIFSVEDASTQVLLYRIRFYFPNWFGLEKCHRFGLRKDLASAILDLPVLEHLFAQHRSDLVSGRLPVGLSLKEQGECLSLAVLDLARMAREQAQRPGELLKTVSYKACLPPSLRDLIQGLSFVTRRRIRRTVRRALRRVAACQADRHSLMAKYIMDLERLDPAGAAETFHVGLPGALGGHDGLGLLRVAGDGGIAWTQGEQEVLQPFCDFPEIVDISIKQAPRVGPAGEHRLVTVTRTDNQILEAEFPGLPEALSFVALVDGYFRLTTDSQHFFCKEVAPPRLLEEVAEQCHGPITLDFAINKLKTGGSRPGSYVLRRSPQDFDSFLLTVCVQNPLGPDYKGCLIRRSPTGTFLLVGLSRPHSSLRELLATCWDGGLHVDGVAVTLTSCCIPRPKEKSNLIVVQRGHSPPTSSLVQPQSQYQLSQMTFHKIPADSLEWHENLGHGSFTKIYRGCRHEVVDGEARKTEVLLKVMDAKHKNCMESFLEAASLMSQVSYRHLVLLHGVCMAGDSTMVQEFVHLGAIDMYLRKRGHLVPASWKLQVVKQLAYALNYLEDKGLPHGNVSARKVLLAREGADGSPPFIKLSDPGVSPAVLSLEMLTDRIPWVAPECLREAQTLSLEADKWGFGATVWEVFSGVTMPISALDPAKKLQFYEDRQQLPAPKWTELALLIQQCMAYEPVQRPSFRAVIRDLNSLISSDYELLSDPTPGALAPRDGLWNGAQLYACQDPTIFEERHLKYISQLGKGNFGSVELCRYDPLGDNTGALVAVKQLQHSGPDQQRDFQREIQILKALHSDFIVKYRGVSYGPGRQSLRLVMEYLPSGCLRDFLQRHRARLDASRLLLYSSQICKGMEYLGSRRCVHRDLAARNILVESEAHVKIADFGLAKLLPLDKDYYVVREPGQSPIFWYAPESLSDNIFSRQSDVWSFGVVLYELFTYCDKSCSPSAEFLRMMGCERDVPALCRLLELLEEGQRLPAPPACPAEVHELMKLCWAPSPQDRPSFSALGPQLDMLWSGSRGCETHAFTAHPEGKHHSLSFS

[5] = Metabolic stability in cryopreserved human liver microsomes assessed as half life; type: ADME, Microsome

Sequence of Tyrosine-protein kinase JAK1 (P23458 whole entry): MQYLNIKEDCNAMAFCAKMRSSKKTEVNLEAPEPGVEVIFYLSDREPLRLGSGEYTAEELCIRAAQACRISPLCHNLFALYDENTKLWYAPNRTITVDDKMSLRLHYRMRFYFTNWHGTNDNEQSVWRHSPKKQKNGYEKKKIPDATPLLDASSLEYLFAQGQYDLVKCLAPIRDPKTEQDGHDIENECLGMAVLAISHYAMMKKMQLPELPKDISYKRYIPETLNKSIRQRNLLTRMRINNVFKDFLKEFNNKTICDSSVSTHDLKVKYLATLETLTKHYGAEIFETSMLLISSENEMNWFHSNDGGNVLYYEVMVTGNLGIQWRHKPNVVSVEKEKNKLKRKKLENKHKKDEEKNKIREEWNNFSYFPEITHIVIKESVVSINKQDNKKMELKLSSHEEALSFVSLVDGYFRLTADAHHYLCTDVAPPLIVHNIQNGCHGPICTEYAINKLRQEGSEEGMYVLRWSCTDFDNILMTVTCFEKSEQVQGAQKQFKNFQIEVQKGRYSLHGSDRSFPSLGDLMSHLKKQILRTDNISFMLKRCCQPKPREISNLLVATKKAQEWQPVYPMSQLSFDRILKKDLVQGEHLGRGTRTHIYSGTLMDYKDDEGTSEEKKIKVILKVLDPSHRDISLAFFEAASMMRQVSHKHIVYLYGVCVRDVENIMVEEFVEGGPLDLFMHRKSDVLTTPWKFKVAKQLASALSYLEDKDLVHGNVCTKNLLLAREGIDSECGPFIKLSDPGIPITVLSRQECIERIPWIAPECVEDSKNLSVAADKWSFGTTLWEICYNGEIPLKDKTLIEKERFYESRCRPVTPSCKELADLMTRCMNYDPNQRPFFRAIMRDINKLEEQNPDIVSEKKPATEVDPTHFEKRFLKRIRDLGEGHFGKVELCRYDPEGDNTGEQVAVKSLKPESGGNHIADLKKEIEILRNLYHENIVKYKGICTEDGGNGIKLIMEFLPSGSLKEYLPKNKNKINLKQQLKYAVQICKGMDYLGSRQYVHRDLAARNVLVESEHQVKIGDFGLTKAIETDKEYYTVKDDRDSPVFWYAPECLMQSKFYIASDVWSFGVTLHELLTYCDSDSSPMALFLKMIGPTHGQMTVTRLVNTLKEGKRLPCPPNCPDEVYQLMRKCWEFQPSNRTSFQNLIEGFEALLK
Sequence of Tyrosine-protein kinase JAK2 (O60674 whole entry): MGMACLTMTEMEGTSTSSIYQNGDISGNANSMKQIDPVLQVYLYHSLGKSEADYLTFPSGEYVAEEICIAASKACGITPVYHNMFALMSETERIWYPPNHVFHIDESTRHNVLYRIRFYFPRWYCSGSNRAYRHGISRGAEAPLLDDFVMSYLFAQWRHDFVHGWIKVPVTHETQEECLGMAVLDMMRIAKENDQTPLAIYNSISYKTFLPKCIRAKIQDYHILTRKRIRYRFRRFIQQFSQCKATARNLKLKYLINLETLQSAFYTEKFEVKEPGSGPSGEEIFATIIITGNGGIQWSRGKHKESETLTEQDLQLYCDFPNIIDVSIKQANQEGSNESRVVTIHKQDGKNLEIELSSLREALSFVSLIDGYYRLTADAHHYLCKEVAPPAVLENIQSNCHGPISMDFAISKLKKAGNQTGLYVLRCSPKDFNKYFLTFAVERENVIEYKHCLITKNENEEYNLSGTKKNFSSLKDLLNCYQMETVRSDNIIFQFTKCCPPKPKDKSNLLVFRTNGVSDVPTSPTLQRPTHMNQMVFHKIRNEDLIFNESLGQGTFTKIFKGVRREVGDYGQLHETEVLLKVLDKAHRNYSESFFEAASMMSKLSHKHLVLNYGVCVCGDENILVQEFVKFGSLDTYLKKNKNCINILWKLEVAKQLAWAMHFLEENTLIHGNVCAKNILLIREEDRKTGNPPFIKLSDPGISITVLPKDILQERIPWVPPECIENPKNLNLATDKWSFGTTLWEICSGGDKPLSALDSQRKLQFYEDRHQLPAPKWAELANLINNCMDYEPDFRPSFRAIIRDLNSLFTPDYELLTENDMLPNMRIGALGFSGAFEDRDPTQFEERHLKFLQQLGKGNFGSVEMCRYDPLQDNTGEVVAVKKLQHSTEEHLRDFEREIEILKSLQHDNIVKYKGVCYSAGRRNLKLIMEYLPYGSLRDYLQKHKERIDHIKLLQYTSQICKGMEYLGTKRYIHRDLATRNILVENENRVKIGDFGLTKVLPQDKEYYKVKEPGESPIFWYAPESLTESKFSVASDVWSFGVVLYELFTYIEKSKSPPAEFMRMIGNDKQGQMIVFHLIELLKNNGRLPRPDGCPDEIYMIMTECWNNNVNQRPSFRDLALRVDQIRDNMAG
Sequence of Non-receptor tyrosine-protein kinase TYK2 (P29597 whole entry): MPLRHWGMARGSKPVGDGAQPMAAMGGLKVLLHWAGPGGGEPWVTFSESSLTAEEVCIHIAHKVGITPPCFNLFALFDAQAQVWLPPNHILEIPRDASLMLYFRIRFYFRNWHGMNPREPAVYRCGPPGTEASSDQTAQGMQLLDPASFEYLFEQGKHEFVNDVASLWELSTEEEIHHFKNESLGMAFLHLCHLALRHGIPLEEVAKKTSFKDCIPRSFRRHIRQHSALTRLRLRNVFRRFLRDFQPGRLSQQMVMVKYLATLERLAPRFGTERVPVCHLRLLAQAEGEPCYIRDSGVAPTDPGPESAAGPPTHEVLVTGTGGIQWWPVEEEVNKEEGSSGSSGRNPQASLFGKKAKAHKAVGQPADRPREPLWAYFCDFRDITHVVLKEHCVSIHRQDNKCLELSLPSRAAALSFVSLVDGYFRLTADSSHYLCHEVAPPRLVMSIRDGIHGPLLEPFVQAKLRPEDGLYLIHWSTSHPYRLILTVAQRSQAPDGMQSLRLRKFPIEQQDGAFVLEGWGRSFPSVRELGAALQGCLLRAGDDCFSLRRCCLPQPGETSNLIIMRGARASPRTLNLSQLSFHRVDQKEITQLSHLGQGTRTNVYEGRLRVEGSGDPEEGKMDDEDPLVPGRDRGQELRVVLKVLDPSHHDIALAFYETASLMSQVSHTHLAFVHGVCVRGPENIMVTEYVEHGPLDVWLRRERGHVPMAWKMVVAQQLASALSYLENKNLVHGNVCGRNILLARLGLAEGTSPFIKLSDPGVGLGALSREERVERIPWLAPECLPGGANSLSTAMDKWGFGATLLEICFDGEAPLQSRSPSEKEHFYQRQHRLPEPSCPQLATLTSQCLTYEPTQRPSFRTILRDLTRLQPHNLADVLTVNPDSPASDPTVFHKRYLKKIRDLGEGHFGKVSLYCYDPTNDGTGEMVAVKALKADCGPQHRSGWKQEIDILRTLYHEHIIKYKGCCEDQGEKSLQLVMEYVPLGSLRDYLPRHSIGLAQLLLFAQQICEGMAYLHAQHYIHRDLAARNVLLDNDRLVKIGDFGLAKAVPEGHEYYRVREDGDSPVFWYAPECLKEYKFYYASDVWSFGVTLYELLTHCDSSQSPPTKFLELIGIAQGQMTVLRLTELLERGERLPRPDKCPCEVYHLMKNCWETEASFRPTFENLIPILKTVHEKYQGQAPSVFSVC

Structure (SMILES) | IC50 [1] | IC50 [2] | Selectivity Index (Homo sapiens) | IC50 [3] | IC50 [4] | half-life [5]
CCS(=O)(=O)N1CCc2cc(Nc3ncc(C)c(-c4cnn(C(C)C)c4)n3)ccc21 | 2.72 nM | 1.61 nM | 1.69 | – | – | –
Cc1cnc(Nc2ccc(N3CCC(N(C)CCO)CC3)c(F)c2)nc1-c1cnn(C(C)C)c1 | – | 2 nM | – | – | – | –
Cc1cnc(Nc2ccc(NS(=O)(=O)c3ccc(C(F)(F)F)cc3)c(F)c2)nc1-c1cnn(C(C)C)c1 | 25 nM | 13 nM | – | 41 nM | 688 nM | –
Cc1cnc(Nc2ccc3c(c2)CNC3=O)nc1-c1cnn(CCC#N)c1 | 1.1 nM | 0.67 nM | – | – | – | 7.79 min
Cc1cnc(Nc2ccc3c(c2)CCN3C(=O)Cc2ccc(OC(F)(F)F)cc2)nc1-c1cnn(C(C)C)c1 | 398 nM | 51.1 nM | 7.8 | – | – | –
Cc1cnc(Nc2ccc3c(c2)CCN3S(=O)(=O)c2ccc(C(F)(F)F)cc2)nc1-c1cnn(C(C)C)c1 | 82 nM | 16 nM | 5.12 | 341 nM | > 1000 nM | 3.94 min
Cc1cnc(Nc2ccc3c(c2)CCN3S(=O)(=O)c2ccc3c(c2)CC(=O)N3C)nc1-c1cnn(C(C)C)c1 | 12.6 nM | 63 nM | < 1 | – | – | –
N#CCCn1cc(-c2nc(Nc3ccc4c(ccn4C(=O)C4CC4)c3)ncc2F)cn1 | 299 nM | 151 nM | – | – | – | 69.3 min
Cc1cnc(Nc2ccc3c(c2)CCN3C(=O)CN2CCS(=O)(=O)CC2)nc1-c1cnn(C(C)C)c1 | 3 nM | 1.99 nM | 1.51 | – | – | –
CC(C)(C)c1ccc(C(=O)N2CCc3cc(Nc4ncc(F)c(-c5cnn(CCC#N)c5)n4)ccc32)cc1 | 601 nM | 40 nM | – | – | – | –
Cc1cnc(Nc2ccc3c(c2)CCN3C(=O)c2ccc(C(F)(F)F)cc2F)nc1-c1cnn(C(C)C)c1 | 25.1 nM | 10.6 nM | 2.36 | – | – | –
COc1ccc(S(=O)(=O)N2CCc3cc(Nc4ncc(C)c(-c5cnn(C(C)C)c5)n4)ccc32)cc1 | 24.1 nM | 7.82 nM | 3.08 | – | – | –
N#CCCn1cc(-c2nc(Nc3ccc4c(c3)CCN4C(=O)C3(C#N)CC3)ncc2F)cn1 | 28 nM | 6 nM | – | 259 nM | 191 nM | 31.8 min
Cc1cnc(Nc2ccc3c(c2)CCN3C(=O)CCN2CCOCC2)nc1-c1cnn(C(C)C)c1 | 12 nM | 9.64 nM | 1.24 | – | – | –
Cc1cnc(Nc2ccc3c(c2)CCN3C(=O)C2CC2(F)F)nc1-c1cnn(C(C)C)c1 (stereo unspecified) | 6.65 nM | 5.72 nM | 1.16 | – | – | –
N#CCCn1cc(-c2nc(Nc3ccc4c(c3)CCN4)ncc2F)cn1 | 292 nM | 2 nM | – | – | – | 3.2 min
CCOC(C)n1cc(-c2nc(Nc3ccc4c(c3)CCN4S(=O)(=O)c3ccc(C(F)(F)F)cc3)ncc2C)cn1 (stereo unspecified) | 341 nM | 38 nM | – | 383 nM | 510 nM | 15.3 min
CC(=O)N1CCc2cc(Nc3ncc(C)c(-c4cnn(C(C)C)c4)n3)ccc21 | 6 nM | 1.81 nM | 3.31 | – | – | –
CCCS(=O)(=O)N1CCc2cc(Nc3ncc(C)c(-c4cnn(C(C)C)c4)n3)ccc21 | 2.29 nM | 3.84 nM | < 1 | – | – | –
N#CCCn1cc(-c2nc(Nc3ccc4c(c3)CCN4C(=O)c3ccc(C(F)(F)F)cc3)ncc2F)cn1 | 153 nM | 5 nM | – | – | – | 17.2 min

Structure (SMILES) | IC50 [1] | IC50 [2] | Selectivity Index (Homo sapiens) | IC50 [3] | IC50 [4] | half-life [5]
Cc1cnc(Nc2ccc3c(c2)CCN3C(=O)[C@@H]2C[C@@H]2F)nc1-c1cnn(C(C)C)c1 | 10.4 nM | 6.28 nM | 1.65 | – | – | –
N#CCCn1cc(-c2nc(Nc3ccc4c(c3)CCN4C(=O)CN3CCS(=O)(=O)CC3)ncc2F)cn1 | – | 2 nM | – | 125 nM | 244 nM | > 120 min
Cc1cnc(Nc2ccc3c(c2)CCN3S(=O)(=O)c2ccc(C(F)(F)F)cc2)nc1-c1cnn(CCC#N)c1 | 21 nM | 2 nM | – | 84 nM | > 1000 nM | 22 min
N#CCCn1cc(-c2nc(Nc3ccc4c(c3)CCN4S(=O)(=O)c3ccc(C(F)(F)F)cc3)ncc2F)cn1 | – | 9 nM | – | – | – | 9.2 min
Cc1cnc(Nc2ccc3c(c2)CCN3C(=O)[C@H]2CCCN2)nc1-c1cnn(C(C)C)c1 | 3 nM | 5 nM | < 1 | – | – | –
Cc1cnc(Nc2ccc3c(c2)CCN3S(=O)(=O)C2CC2)nc1-c1cnn(C(C)C)c1 | 2.38 nM | 2.69 nM | < 1 | – | – | –
Cn1ccc2cc(Nc3ncc(F)c(-c4cnn(CCC#N)c4)n3)ccc21 | 114 nM | 18 nM | – | – | – | 7.62 min
Cc1cnc(Nc2ccc3c(c2)CCN3C(=O)[C@H]2CCCN2C(=O)C2(C#N)CC2)nc1-c1cnn(C(C)C)c1 | 3.8 nM | 2.05 nM | 1.85 | – | – | –
Cc1cnc(Nc2ccc3c(c2)CCN3S(=O)(=O)c2ccc3c(c2)CC(=O)N3)nc1-c1cnn(C(C)C)c1 | 25 nM | 12.3 nM | 2.03 | – | – | –
Cc1cnc(Nc2ccc3c(c2)CCN3C(=O)C2CC2)nc1-c1cnn(C(C)C)c1 | 3.86 nM | 3.76 nM | 1.03 | – | – | –
Cc1cnc(Nc2ccc3c(c2)CCN3C(=O)c2cccc(C(F)(F)F)c2)nc1-c1cnn(C(C)C)c1 | 65.3 nM | 14.6 nM | 4.49 | – | – | –
N#CCCn1cc(-c2nc(Nc3ccc4c(c3)CCN4S(=O)(=O)C(F)(F)F)ncc2F)cn1 | 196 nM | 4 nM | – | 912 nM | > 1000 nM | 9.8 min
N#CCCn1cc(-c2nc(Nc3ccc4c(ccn4S(=O)(=O)c4ccc(C(F)(F)F)cc4)c3)ncc2F)cn1 | – | – | – | – | – | 38.1 min
CCCn1cc(-c2nc(Nc3ccc4c(c3)CCN4S(=O)(=O)c3ccc(C(F)(F)F)cc3)ncc2C)cn1 | – | 23 nM | – | – | – | 2.38 min
N#CCCn1cc(-c2nc(Nc3ccc4c(c3)CNC4=O)ncc2F)cn1 | 58 nM | 7 nM | – | – | – | 56.8 min
Cc1cnc(Nc2ccc3c(c2)CCN3S(=O)(=O)c2ccc(C(F)(F)F)cc2)nc1-c1cnn(C)c1 | > 1000 nM | 148 nM | – | > 1000 nM | > 1000 nM | 7.3 min
Cc1cnc(Nc2ccc3c(c2)CCN3C(=O)[C@@H](O)CO)nc1-c1cnn(C(C)C)c1 | 21.2 nM | 10.8 nM | 1.95 | – | – | –
Cc1cnc(Nc2ccc3c(c2)CCN3S(=O)(=O)c2ccc(C(F)(F)F)cc2)nc1-c1cnn(C2CC2)c1 | – | 60 nM | – | – | – | 4.13 min
Cc1cnc(Nc2ccc3c(c2)CCN3S(=O)(=O)c2ccc(C(F)(F)F)cc2)nc1-c1cnn(C2CCC2)c1 | 162 nM | 12 nM | – | 333 nM | > 1000 nM | 19.5 min
